Data published in patent US8445492B2, “Method for inhibiting growth of cancer cells and cell telomere and diseases of cell proliferation by using heteroannelated anthraquinone derivative compounds” (National Defense Medical Center, priority 2008, dated 2013).
Where two headings read alike, the source gives them in different places.

What was measured:
A549/ATCC [1] = tested on: A549/ATCC
EKVX [2] = tested on: EKVX
HOP-62 [3] = tested on: HOP-62
HOP-92 [4] = tested on: HOP-92
NCI-H226 [5] = tested on: NCI-H226
NCI-H23 [6] = tested on: NCI-H23
NCI-H460 [7] = tested on: NCI-H460
NCI-H522 [8] = tested on: NCI-H522
A549/ATCC [9] = tested on: A549/ATCC; remark: listed apart in the source
EKVX [10] = tested on: EKVX; remark: listed apart in the source
HOP-62 [11] = tested on: HOP-62; remark: listed apart in the source
HOP-92 [12] = tested on: HOP-92; remark: listed apart in the source
NCI-H226 [13] = tested on: NCI-H226; remark: listed apart in the source
NCI-H23 [14] = tested on: NCI-H23; remark: listed apart in the source
NCI-H460 [15] = tested on: NCI-H460; remark: listed apart in the source
NCI-H522 [16] = tested on: NCI-H522; remark: listed apart in the source
CCRF-CEM [17] = tested on: CCRF-CEM
HL-60(TB) [18] = tested on: HL-60(TB)
K-562 [19] = tested on: K-562
MOLT-4 [20] = tested on: MOLT-4
RPMI-8226 [21] = tested on: RPMI-8226
CCRF-CEM [22] = test: NCI DTP in-vitro dose response, Leukemia
HL-60(TB) [23] = test: NCI DTP in-vitro dose response, Leukemia
K-562 [24] = test: NCI DTP in-vitro dose response, Leukemia
MOLT-4 [25] = test: NCI DTP in-vitro dose response, Leukemia
RPMI-8226 [26] = test: NCI DTP in-vitro dose response, Leukemia

With `O=C1c2ccccc2C(=O)c2c1ccc1nccnc21` [TABLE 5-2] the GI50 (A549/ATCC [1]) was 4.53 µM, the TGI (A549/ATCC [1]) was >1.00E−4 and the “Percent Growth” value (A549/ATCC [1]; Log10 Concentration −4.0) was 3%. For the same compound, the “Percent Growth” value (A549/ATCC [1]; Log10 Concentration −5.0) was 36%, the “Percent Growth” value (A549/ATCC [1]; Log10 Concentration −6.0) was 77% and the “Percent Growth” value (A549/ATCC [1]; Log10 Concentration −7.0) was 95%. The “Percent Growth” value (A549/ATCC [1]; Log10 Concentration −8.0) was 93%, the GI50 (EKVX [2]) was 3.45 µM and the TGI (EKVX [2]) was 7.21E−5. For the same compound, the “Percent Growth” value (EKVX [2]; Log10 Concentration −4.0) was −4%, the “Percent Growth” value (EKVX [2]; Log10 Concentration −5.0) was 25% and the “Percent Growth” value (EKVX [2]; Log10 Concentration −6.0) was 79%. For the same compound, the “Percent Growth” value (EKVX [2]; Log10 Concentration −7.0) was 89%, the “Percent Growth” value (EKVX [2]; Log10 Concentration −8.0) was 101% and the GI50 (HOP-62 [3]) was 5.64 µM. The TGI (HOP-62 [3]) was >1.00E−4, the “Percent Growth” value (HOP-62 [3]; Log10 Concentration −4.0) was 3% and the “Percent Growth” value (HOP-62 [3]; Log10 Concentration −5.0) was 40%. The “Percent Growth” value (HOP-62 [3]; Log10 Concentration −6.0) was 81%, the “Percent Growth” value (HOP-62 [3]; Log10 Concentration −7.0) was 82% and the “Percent Growth” value (HOP-62 [3]; Log10 Concentration −8.0) was 92%. For the same compound, the GI50 (HOP-92 [4]) was 22.5 µM, the TGI (HOP-92 [4]) was >1.00E−4 and the “Percent Growth” value (HOP-92 [4]; Log10 Concentration −4.0) was 8%. For the same compound, the “Percent Growth” value (HOP-92 [4]; Log10 Concentration −5.0) was 73%, the “Percent Growth” value (HOP-92 [4]; Log10 Concentration −6.0) was 78% and the “Percent Growth” value (HOP-92 [4]; Log10 Concentration −7.0) was 83%. For the same compound, the “Percent Growth” value (HOP-92 [4]; Log10 Concentration −8.0) was 95%, the GI50 (NCI-H226 [5]) was 16.6 µM and the TGI (NCI-H226 [5]) was 9.52E−5. For the same compound, the “Percent Growth” value (NCI-H226 [5]; Log10 Concentration −4.0) was −1%, the “Percent Growth” value (NCI-H226 [5]; Log10 Concentration −5.0) was 64% and the “Percent Growth” value (NCI-H226 [5]; Log10 Concentration −6.0) was 73%. For the same compound, the “Percent Growth” value (NCI-H226 [5]; Log10 Concentration −7.0) was 81%, the “Percent Growth” value (NCI-H226 [5]; Log10 Concentration −8.0) was 86% and the GI50 (NCI-H23 [6]) was 12 µM. For the same compound, the TGI (NCI-H23 [6]) was 7.03E−5, the “Percent Growth” value (NCI-H23 [6]; Log10 Concentration −4.0) was −10% and the “Percent Growth” value (NCI-H23 [6]; Log10 Concentration −5.0) was 55%. The “Percent Growth” value (NCI-H23 [6]; Log10 Concentration −6.0) was 84%, the “Percent Growth” value (NCI-H23 [6]; Log10 Concentration −7.0) was 87% and the “Percent Growth” value (NCI-H23 [6]; Log10 Concentration −8.0) was 92%. The GI50 (NCI-H460 [7]) was 2.01 µM, the TGI (NCI-H460 [7]) was 2.69E−5 and the “Percent Growth” value (NCI-H460 [7]; Log10 Concentration −4.0) was −22%. For the same compound, the “Percent Growth” value (NCI-H460 [7]; Log10 Concentration −5.0) was 17%, the “Percent Growth” value (NCI-H460 [7]; Log10 Concentration −6.0) was 65% and the “Percent Growth” value (NCI-H460 [7]; Log10 Concentration −7.0) was 95%. For the same compound, the “Percent Growth” value (NCI-H460 [7]; Log10 Concentration −8.0) was 98%, the GI50 (NCI-H522 [8]) was 4.64 µM and the TGI (NCI-H522 [8]) was 3.25E−5. For the same compound, the “Percent Growth” value (NCI-H522 [8]; Log10 Concentration −4.0) was −33%, the “Percent Growth” value (NCI-H522 [8]; Log10 Concentration −5.0) was 35% and the “Percent Growth” value (NCI-H522 [8]; Log10 Concentration −6.0) was 81%. For the same compound, the “Percent Growth” value (NCI-H522 [8]; Log10 Concentration −7.0) was 86%, the “Percent Growth” value (NCI-H522 [8]; Log10 Concentration −8.0) was 89% and the CC50 (A549/ATCC [9]) was > 100 µM. The CC50 (EKVX [10]) was > 100 µM, the CC50 (HOP-62 [11]) was > 100 µM and the CC50 (HOP-92 [12]) was > 100 µM. For the same compound, the CC50 (NCI-H226 [13]) was > 100 µM, the CC50 (NCI-H23 [14]) was > 100 µM and the CC50 (NCI-H460 [15]) was > 100 µM. For the same compound, the CC50 (NCI-H522 [16]) was > 100 µM.
In the case of `O=C1c2ccccc2C(=O)c2c1ccc1nccnc21` [TABLE 5-1], the GI50 (CCRF-CEM [17]) is reported as 2.46 µM, the TGI (CCRF-CEM [17]) is reported as >1.00E−4 and the “Percent Growth” value (CCRF-CEM [17]; Log10 Concentration −4.0) is reported as 20%. For the same compound, the “Percent Growth” value (CCRF-CEM [17]; Log10 Concentration −5.0) was 22%, the “Percent Growth” value (CCRF-CEM [17]; Log10 Concentration −6.0) was 68% and the “Percent Growth” value (CCRF-CEM [17]; Log10 Concentration −7.0) was 91%. The “Percent Growth” value (CCRF-CEM [17]; Log10 Concentration −8.0) was 90%, the GI50 (HL-60(TB) [18]) was 0.677 µM and the TGI (HL-60(TB) [18]) was 1.15E−5. For the same compound, the “Percent Growth” value (HL-60(TB) [18]; Log10 Concentration −4.0) was −54%, the “Percent Growth” value (HL-60(TB) [18]; Log10 Concentration −5.0) was 3% and the “Percent Growth” value (HL-60(TB) [18]; Log10 Concentration −6.0) was 47%. For the same compound, the “Percent Growth” value (HL-60(TB) [18]; Log10 Concentration −7.0) was 67%, the “Percent Growth” value (HL-60(TB) [18]; Log10 Concentration −8.0) was 83% and the GI50 (K-562 [19]) was 0.0683 µM. The TGI (K-562 [19]) was >1.00E−4, the “Percent Growth” value (K-562 [19]; Log10 Concentration −4.0) was 10% and the “Percent Growth” value (K-562 [19]; Log10 Concentration −5.0) was 17%. The “Percent Growth” value (K-562 [19]; Log10 Concentration −6.0) was 30%, the “Percent Growth” value (K-562 [19]; Log10 Concentration −7.0) was 41% and the “Percent Growth” value (K-562 [19]; Log10 Concentration −8.0) was 94%. For the same compound, the GI50 (MOLT-4 [20]) was 3.65 µM, the TGI (MOLT-4 [20]) was >1.00E−4 and the “Percent Growth” value (MOLT-4 [20]; Log10 Concentration −4.0) was 4%. The “Percent Growth” value (MOLT-4 [20]; Log10 Concentration −5.0) was 33%, the “Percent Growth” value (MOLT-4 [20]; Log10 Concentration −6.0) was 72% and the “Percent Growth” value (MOLT-4 [20]; Log10 Concentration −7.0) was 81%. The “Percent Growth” value (MOLT-4 [20]; Log10 Concentration −8.0) was 89%, the GI50 (RPMI-8226 [21]) was 1.61 µM and the TGI (RPMI-8226 [21]) was >1.00E−4. The “Percent Growth” value (RPMI-8226 [21]; Log10 Concentration −4.0) was 12%, the “Percent Growth” value (RPMI-8226 [21]; Log10 Concentration −5.0) was 30% and the “Percent Growth” value (RPMI-8226 [21]; Log10 Concentration −6.0) was 55%. The “Percent Growth” value (RPMI-8226 [21]; Log10 Concentration −7.0) was 81%, the “Percent Growth” value (RPMI-8226 [21]; Log10 Concentration −8.0) was 90% and the CC50 (CCRF-CEM [22]) was > 100 µM. The CC50 (HL-60(TB) [23]) was 83.7 µM, the CC50 (K-562 [24]) was > 100 µM and the CC50 (MOLT-4 [25]) was > 100 µM. The CC50 (RPMI-8226 [26]) was > 100 µM.
